{
  "source": "patent US10874106B2",
  "about": "“Method of regulating plant growth” (ROTAM AGROCHEM INTERNATIONAL COMPANY LIMITED, priority 2012, dated 2020)",
  "assay_type_in_all_cases": "in vivo",
  "key": {"sugarcane plants": {"tested_on": "sugarcane plants", "test": "Growth of sugarcane plants treated with clomazone versus untreated plants", "experimental": "(§1) Sugarcane plants are treated by the application of a commercially available concentrate formulation of clomazone (Centium 360 CS®; a suspension concentrate of microencapsulated clomazone at a concentration of 360 g/l). The concentrate formulation is dispersed in water and diluted, in a manner conventional in the art, to give an aqueous spray composition. The spray composition is applied to the sugarcane plants in an amount to apply clomazone at a rate of 120 g/hectare.\nThe growth of the sugarcane plants is monitored and compared with the growth of sugarcane plants grown under the same conditions, but without treatment with clomazone."}, "rice plants": {"tested_on": "rice plants", "test": "Growth of young rice plants treated with clomazone versus untreated plants", "experimental": "as §1\nYoung rice plants are treated in an analogous manner to that described in Example 1.\nThe growth of the rice plants is monitored and compared with the growth of rice plants of the same age and grown under the same conditions, but without treatment with clomazone."}, "soybean plants": {"tested_on": "soybean plants", "test": "Growth of young soybean plants treated with clomazone versus untreated plants", "experimental": "as §1\nYoung soybean plants are treated in an analogous manner to that described in Example 1.\nThe growth of the soybean plants is monitored and compared with the growth of soybean plants of the same age and grown under the same conditions, but without treatment with clomazone."}, "oilseed rape plants": {"tested_on": "oilseed rape plants", "test": "Growth of young oilseed rape plants treated with clomazone versus untreated plants", "experimental": "as §1\nYoung oilseed rape plants are treated in an analogous manner to that described in Example 1.\nThe growth of the oilseed rape plants is monitored and compared with the growth of oilseed rape plants of the same age and grown under the same conditions, but without treatment with clomazone."}, "potato plants": {"tested_on": "potato plants", "test": "Growth of young potato plants treated with clomazone versus untreated plants", "experimental": "as §1\nYoung potato plants are treated in an analogous manner to that described in Example 1.\nThe growth of the potato plants is monitored and compared with the growth of potato plants of the same age and grown under the same conditions, but without treatment with clomazone."}, "[1]": {"settings": "clomazone 120 g/hectare spray, versus untreated plants"}, "[2]": {"settings": "treated analogously to Example 1"}, "[3]": {"settings": "treated analogously to Example 1, versus untreated plants"}},
  "data": [
    {"smiles": "CC1(C)CON(Cc2ccccc2Cl)C1=O", "note": "[clomazone, 2-(2-chlorophenyl)methyl-4,4-dimethyl-3-isoxazolidinone]", "values": [
      {"measurement": "growth of the treated plants in comparison to the untreated plants", "setting": "sugarcane plants; Centium 360 CS diluted in water, sprayed, clomazone 120 g/hectare", "result": "significantly improved"},
      {"measurement": "average height", "setting": "sugarcane plants; [1]", "result": "greater"},
      {"measurement": "average leaf blade area", "setting": "sugarcane plants; [1]", "result": "larger"},
      {"measurement": "shoot growth", "setting": "sugarcane plants; [1]", "result": "increased"},
      {"measurement": "growth of the treated plants in comparison to the untreated plants", "setting": "rice plants; [2]", "result": "significantly improved"},
      {"measurement": "average height", "setting": "rice plants; [3]", "result": "greater"},
      {"measurement": "average leaf blade area", "setting": "rice plants; [3]", "result": "larger"},
      {"measurement": "shoot growth", "setting": "rice plants; [3]", "result": "increased"},
      {"measurement": "growth of the treated plants in comparison to the untreated plants", "setting": "soybean plants; [2]", "result": "significantly improved"},
      {"measurement": "average height", "setting": "soybean plants; [3]", "result": "greater"},
      {"measurement": "average leaf blade area", "setting": "soybean plants; [3]", "result": "larger"},
      {"measurement": "shoot growth", "setting": "soybean plants; [3]", "result": "increased"},
      {"measurement": "growth of the treated plants in comparison to the untreated plants", "setting": "oilseed rape plants; [2]", "result": "significantly improved"},
      {"measurement": "average height", "setting": "oilseed rape plants; [3]", "result": "greater"},
      {"measurement": "average leaf blade area", "setting": "oilseed rape plants; [3]", "result": "larger"},
      {"measurement": "shoot growth", "setting": "oilseed rape plants; [3]", "result": "increased"},
      {"measurement": "growth of the treated plants in comparison to the untreated plants", "setting": "potato plants; [2]", "result": "significantly improved"},
      {"measurement": "average height", "setting": "potato plants; [3]", "result": "greater"},
      {"measurement": "average leaf blade area", "setting": "potato plants; [3]", "result": "larger"},
      {"measurement": "shoot growth", "setting": "potato plants; [3]", "result": "increased"}
    ]}
  ]
}
